Test results taken from patent publication US4332895A, “Thermal stable beta-galactosidase” (National Research Development Corp., priority 1978, dated 1982).
Like-named read-outs stand apart in the source and are kept apart here.

What was measured:
Assay type in all cases: biochemical
[1] = system: β-galactosidase of Bacillus stearothermophilus HRI strains (HRI enzyme), purified enzyme; experiment: β-galactosidase assay, purified enzyme, ONPG or lactose as substrate
Protocol: The assay used is based on that of Lederberg (J. Bacteriol. 1950, 60, 381), using an assay mixture comprising 2.8 ml of 50 mM sodium phosphate, pH 7.0, and 0.1 ml of 68 mM ONPG. 0.1 ml aliquots of both purified enzyme and toluene-treated cell suspension, and 10 mg. amounts in 2.9 ml of buffer of freeze dried immobilised whole cell preparation are used for the assays. Assays are carried out at incubation temperature of 65° C. and after the appropriate time interval the reactions are halted by addition of 3 ml aliquots of 0.5 M sodium bicarbonate to each reaction mixture and immediate cooling in an ice bath. The absorbance of the resultant solutions is measured at 410 nm using a Perkin-Elmer 124 double beam spectrophotometer. In the case of whole cell suspensions the assay tubes are centrifuged and in the case of the immobilised cells the mixtures are filtered, to remove cells and polyacrylamide gel respectively prior to measurement of the absorbance.
The assay mixture used comprises 0.9 ml of 50 mM sodium phosphate buffer, pH 7.0, 4 ml of lactose (4 g in 100 ml of phosphate buffer), to which 0.1 ml of purified enzyme or cell suspension or 10 mg of gel entrapped cell preparation is added. The reaction mixtures are incubated for 15 minutes at 65° C., reactions are halted by addition of 4.2% perchloric acid and the solutions are centrifuged. Aliquots of the supernatant solutions are assayed for glucose or galactose.
Glucose is estimated by a modification of the method of Trinder (Ann. Clin. Biochem. 1969 6, 24). 1 ml aliquots of the supernatant solutions are assayed by addition to a mixture comprising 1 ml of 0.2% phenol and 3 ml of colour reagent (75 ml 4% (w/v) disodium hydrogen orthophosphate, 225 ml of water, 6 mg of glucose oxidase (Boehringer Corp. Ltd.), 0.15 ml peroxidase (Boehringer Corp. Ltd.), 100 mg of 4-aminophenazone and 300 mg of sodium azide) followed by incubation at 37° C. for 10 minutes and absorbance measurement at 515 nm.
Galactose is estimated as follows: a sample (e.g. 0.2 ml) containing not more than 200 μg/ml of galactose is mixed with 2.5 ml of buffer (4.8 g Na2 HPO4, 0.86g NaH2 PO4 and 0.2 g MgSO4 7H2 O per 200 ml of H2 O) and 0.1 ml of 10 mg/ml of NAD solution and the absorbance is measured at 340 nm. 0.02 ml of galactose dehydrogenase (Boehringer Corp. Ltd.) is added, the solutions incubated at 37° C. for 30 minutes and the absorbance again measured at 340 nm.

[2] = system: β-galactosidase of Bacillus stearothermophilus HRI strains, whole cell suspension; experiment: β-galactosidase assay, toluene-treated whole cell suspension, ONPG or lactose as substrate; conditions: for Km: whole cell suspension, pH 7.0, 65° C.
Protocol: The cells are shaken at room temperature for about 5 minutes, and then harvested by centrifugation at 6000 g for 20 minutes in an MSE "Hi Spin 21" centrifuge prior to washing with buffer. […] The relation of Harris and Kornberg (Proc. Roy. Soc. Lond. B. 1972, 182, 159) is used to determine the cell density, 0.33 mg. dry wt. of B. stearothermophilus corresponding to an absorbance of 1.0 at 680 n.m. The assay used is based on that of Lederberg (J. […] Assays are carried out at incubation temperature of 65° C. and after the appropriate time interval the reactions are halted by addition of 3 ml aliquots of 0.5 M sodium bicarbonate to each reaction mixture and immediate cooling in an ice bath. The absorbance of the resultant solutions is measured at 410 nm using a Perkin-Elmer 124 double beam spectrophotometer. In the case of whole cell suspensions the assay tubes are centrifuged and in the case of the immobilised cells the mixtures are filtered, to remove cells and polyacrylamide gel respectively prior to measurement of the absorbance. […] The reaction mixtures are incubated for 15 minutes at 65° C., reactions are halted by addition of 4.2% perchloric acid and the solutions are centrifuged. Aliquots of the supernatant solutions are assayed for glucose or galactose. Glucose is estimated by a modification of the method of Trinder (Ann. Clin. […] Ltd.), 0.15 ml peroxidase (Boehringer Corp. Ltd.), 100 mg of 4-aminophenazone and 300 mg of sodium azide) followed by incubation at 37° C. for 10 minutes and absorbance measurement at 515 nm. […] Ltd.) is added, the solutions incubated at 37° C. for 30 minutes and the absorbance again measured at 340 nm.

[3] = system: β-galactosidase of Bacillus stearothermophilus HRI strains, entrapped whole cell preparation; experiment: β-galactosidase assay, polyacrylamide gel entrapped (immobilised) whole cell preparation, ONPG or lactose as substrate; conditions: for Km: entrapped whole cell preparation, pH 7.0, 65° C.
Protocol: Washed cells which have been toluene treated, as above, are resuspended in an equal volume of 50 mM sodium phosphate buffer, pH 7.0, containing acrylamide (200 g/l) and NN'-methylenebisacrylamide (20 g/l). Ammonium persulphate (2 […]) are added to this suspension which is then allowed to gel, and the gel is disrupted by forcing through a wire mesh, as described by Hjerten (Arch. Biochem. Biophys. […] The disrupted gel is freeze-dried to provide a stock of enzymatically active immobilised whole cell preparation. The assay used is based on that of Lederberg (J. […] Assays are carried out at incubation temperature of 65° C. and after the appropriate time interval the reactions are halted by addition of 3 ml aliquots of 0.5 M sodium bicarbonate to each reaction mixture and immediate cooling in an ice bath. The absorbance of the resultant solutions is measured at 410 nm using a Perkin-Elmer 124 double beam spectrophotometer. In the case of whole cell suspensions the assay tubes are centrifuged and in the case of the immobilised cells the mixtures are filtered, to remove cells and polyacrylamide gel respectively prior to measurement of the absorbance. […] The reaction mixtures are incubated for 15 minutes at 65° C., reactions are halted by addition of 4.2% perchloric acid and the solutions are centrifuged. Aliquots of the supernatant solutions are assayed for glucose or galactose. Glucose is estimated by a modification of the method of Trinder (Ann. Clin. […] Ltd.), 0.15 ml peroxidase (Boehringer Corp. Ltd.), 100 mg of 4-aminophenazone and 300 mg of sodium azide) followed by incubation at 37° C. for 10 minutes and absorbance measurement at 515 nm. […] Ltd.) is added, the solutions incubated at 37° C. for 30 minutes and the absorbance again measured at 340 nm.

[4] = read-out: Michaelis constant (Km) with ONPG as substrate
[5] = read-out: Km with lactose as substrate

**Q.** `N[C@@H](CS)C(=O)O` [Cysteine, cysteine] was tested. Which “% Activity” value ([1]; addition at 10 mM final, ONPG as substrate, purified enzyme, no addition = 100) did it give?
**A.** 98.1%

**Q.** What about the “% Activity” value ([2]; addition at 10 mM final, ONPG as substrate, whole cells, no addition = 100) of the same molecule?
**A.** 103.7%

**Q.** And the “% Activity” value ([3]; addition at 10 mM final, ONPG as substrate, immobilised whole cells, no addition = 100)?
**A.** 109.4%

**Q.** Which Km ([1]; HRI enzyme, measured at 65° C., read-out: Michaelis constant (Km) for ONPG) does the source give for `O=[N+]([O-])c1ccccc1O[C@@H]1O[C@H](CO)[C@H](O)[C@H](O)[C@H]1O` [ONPG, orthonitrophenyl-β-D-galactopyranoside, reference compound] here?
**A.** 430 µM

**Q.** What about the Km ([1]; purified enzyme, pH 7.0, 65° C., read-out: Michaelis constant (Km) with ONPG as substrate) of the same molecule?
**A.** 430 µM

**Q.** And the Km [2, 4]?
**A.** 380 µM

**Q.** What about the Km [3, 4] of the same molecule?
**A.** 260 µM

**Q.** How did the Km ([1]; HRI enzyme, measured at 65° C., read-out: Michaelis constant (Km) for lactose) turn out when `OC[C@H]1O[C@@H](O[C@H]2[C@H](O)[C@@H](O)C(O)O[C@@H]2CO)[C@H](O)[C@@H](O)[C@H]1O` (some centres unmarked) [lactose] was run?
**A.** 2100 µM

**Q.** What about the Km ([1]; purified enzyme extract, pH 7.0, 65° C., read-out: Km with lactose as substrate) of the same molecule?
**A.** 2060 µM

**Q.** And the Km [2, 5]?
**A.** 11800 µM

**Q.** And the Km [3, 5]?
**A.** 9520 µM
